IC50 data for three molecules are collected here from BindingDB's records for doi:10.1021/jm950717a (Bristol-Myers Squibb, 1996).

As a reminder, the IC50 is the concentration that inhibits the measured activity by half.

This test concerns the target T1, Dimer of Gag-Pol polyprotein [489-587] (Human immunodeficiency virus 1, UniProt P12497).
T1 construct: 489-587
As to the kind of experiment: Protease Inhibition Assay. Conditions: pH 5.5; 37 °C. Here is the method:
IC50 values are determined by inhibition of the cleavage of the peptidic substrate [V-S-Q-N-(beta-naphthylalanine)-P-I-V]. The IC50 value represents the concentration of inhibitor required to inhibit cleavage of substrate by 50%. The assay is performed by addition of purified enzyme to a mixture of inhibitor and the above substrate at pH 5.5. The reaction medium is incubated for 30 min at 37 °C followed by quenching with H3-PO4 and then analyzed by reverse phase HPLC UV (220 nm) detection.
Regarding `CC(C)(C)OC(=O)N[C@@H](Cc1ccccc1)[C@H](O)CNC[C@@H](O)[C@H](Cc1ccc(OCC(O)c2cccnc2)cc1)NC(=O)OC(C)(C)C` (stereo partly drawn) [[1S-[1R*,2S*(2S*,3R*)]]-[3-[[3-[[(1,1-Dimethylethoxy)-carbonyl]amino]-2-hydroxy-4-[4-[2-hydroxy-2-(3-pyridinyl)ethoxy]phenyl]butyl]amino]-2-hydroxy-1-], half-maximal inhibition (IC50) required 110 nM.
To `CC(C)(C)OC(=O)N[C@@H](Cc1ccccc1)[C@H](O)CNC[C@@H](O)[C@H](Cc1ccc(OCC(=O)N2CCOCC2)cc1)NC(=O)OC(C)(C)C` [tert-butyl N-[(2S,3R)-4-{[(2R,3S)-3-{[(tert-butoxy)carbonyl]amino}-2-hydroxy-4-{4-[2-(morpholin-4-yl)-2-oxoethoxy]phenyl}butyl]amino}-3-hydroxy-1-phenylbutan-2-yl]carbamate] belongs 100 nM; to `CC(C)(C)OC(=O)N[C@@H](Cc1ccccc1)[C@H](O)CNC[C@@H](O)[C@H](Cc1ccc(OCCN2CCOCC2)cc1)NC(=O)OC(C)(C)C` [tert-butyl N-[(2S,3R)-4-{[(2R,3S)-3-{[(tert-butoxy)carbonyl]amino}-2-hydroxy-4-{4-[2-(morpholin-4-yl)ethoxy]phenyl}butyl]amino}-3-hydroxy-1-phenylbutan-2-yl]carbamate], 100 nM.
